Assay results as given in patent publication US20260062376A1, “SQUARAMIDE DERIVATIVES AS CB1 ALLOSTERIC MODULATORS” (RESEARCH TRIANGLE INSTITUTE, priority 2022, published 2026).
Values belong to the compound of their own block, whether it stands above or below them.

What was measured:
[1] = test system: MDCK-mdr1 cells; experiment: Bidirectional MDCK-MDR1 permeability assay; assay type: in vitro ADME
Experimental: Permeability Assessment. Bidirectional MDCK-MDR1 permeability assay was performed by Paraza Pharma Inc. (Montreal, Canada). MDCK-mdr1 cells at passage 5 were seeded onto permeable polycarbonate supports in 12-well Costar Transwell plates and allowed to grow and differentiate for 3 days. On day 3, culture medium (DMEM supplemented with 10% FBS) was removed from both sides of the transwell inserts and cells were rinsed with warm HBSS. After the rinse step, the chambers were filled with warm transport buffer (HBSS containing 10 mM HEPES, 0.25% BSA, pH 7.4) and the plates were incubated at 37° C. for 30 min prior to TEER (Trans Epithelial Electric Resistance) measurements.
The buffer in the donor chamber (apical side for A-to-B assay, basolateral side for B-to-A assay) was removed and replaced with the working solution (10 μM test article in transport buffer). The plates were then placed at 37° C. under light agitation. At designated time points (30, 60 and 90 min), an aliquot of transport buffer from the receiver chamber was removed and replenished with fresh transport buffer. Samples were quenched with ice-cold ACN containing internal standard and then centrifuged to pellet protein. Resulting supernatants are further diluted with 50/50 ACN/H2O (H2O only for Atenolol) and submitted for LC-MS/MS analysis. Reported apparent permeability (Papp) values were calculated from single determination. Atenolol and propranolol were tested as low and moderate permeability references.
The apparent permeability (Papp, measured in cm/s) of a compound is determined according to the following formula from two independent experiments in duplicate: […]
where dQ/dt is the net rate of appearance in the receiver compartment; A is the area of the Transwell measured in cm^2 (1.12 cm^2); Ci is the initial concentration of compound added to the donor chamber; and 60 is the conversion factor for minute to second.

[2] = Kinetic solubility assessment; assay type: physicochemical; settings: phosphate buffer solution, 2 hours at room temperature, target 400 μM
Experimental: The solution was agitated on a VX-2500 multi-tube vortexer (VWR International, Radnor, Pennsylvania, United States of America) for 2 hours at room temperature. Following agitation, the sample was filtrated on a glass-fiber filter (1 μm) and the eluate was diluted 400-fold with a mixture of acetonitrile: water (1:1). On each experimental occasion, nicardipine and imipramine were assessed as reference compounds for low and high solubility, respectively. All samples were assessed in triplicate and analyzed by LC-MS/MS using electrospray ionization against standards prepared in the same matrix.

[3] = target: T1, Human CB1 (Homo sapiens (Human), UniProt P21554); experiment: Calcium mobilization assay (antagonist mode vs CP55,940); assay type: cell-based; settings: CHO-RD-HGA16 cells stably expressing human CB1; against EC50 concentration of CP55,940; mean ± SEM, at least three experiments
T1 sequence (P21554 whole entry): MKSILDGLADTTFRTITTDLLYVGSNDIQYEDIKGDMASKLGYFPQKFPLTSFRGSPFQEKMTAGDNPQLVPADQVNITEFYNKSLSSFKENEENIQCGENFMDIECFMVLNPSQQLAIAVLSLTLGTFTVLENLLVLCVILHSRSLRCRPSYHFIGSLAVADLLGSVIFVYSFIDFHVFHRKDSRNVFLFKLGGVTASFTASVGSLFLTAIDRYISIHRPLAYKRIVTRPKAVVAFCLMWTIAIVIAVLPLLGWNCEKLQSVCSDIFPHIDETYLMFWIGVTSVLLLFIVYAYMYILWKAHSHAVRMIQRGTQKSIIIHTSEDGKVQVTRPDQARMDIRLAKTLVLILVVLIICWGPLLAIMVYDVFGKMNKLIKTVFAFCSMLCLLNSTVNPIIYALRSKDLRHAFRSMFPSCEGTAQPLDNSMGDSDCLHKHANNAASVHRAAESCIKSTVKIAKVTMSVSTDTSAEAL
Experimental: Calcium Mobilization Assay: CHO-RD-HGA16 cells (Molecular Devices, San Jose, California, United States of America) stably expressing the human CB1 receptor were plated into 96-well black-walled assay plates at 25,000 cells/well in 100 μL of Ham's F12 (supplemented with 10% fetal bovine serum, 100 units of penicillin/streptomycin, and 100 μg/mL Normocin) and incubated overnight at 37° C., 5% CO2. Calcium 5 dye (Molecular Devices, San Jose, California, United States of America) was reconstituted according to the manufacturer's instructions. The reconstituted dye was diluted 1:40 in prewarmed (37° C.) assay buffer (lx HBSS, 20 mM HEPES, 2.5 mM probenecid, pH 7.4 at 37° C.). Growth medium was removed, and the cells were gently washed with 100 μL of prewarmed (37° C.) assay buffer. […] After the pretreatment incubation period, the plate was read with a FLIPR Tetra (Molecular Devices, San Jose, California, United States of America). […] Relative fluorescence units (RFU) were plotted against the log of compound concentrations. […] Test compound RFUs were compared to the CP55,940 Emax RFUs to generate % Emax values. For the CB2 agonist and antagonist assays, the same procedures were followed except that stable human CB2—CHO-RD-HGA16 cells were used.
(§1) Data Analysis: For calcium mobilization experiments, data were fit to a three-parameter logistic curve to generate IC50 values (GraphPad Prism 6.0, Graphpad Software, San Diego, California, United States of America). For [^35S]GTPγS experiments, data were normalized to maximal CP55,940 (100 nM) stimulation in the absence of test compound (i.e., vehicle=100%).

[4] = Metabolic stability in rat liver microsomes; assay type: in vitro ADME; settings: for microsomal CLint / half-life: pH 7.4, 0.5 mg/mL protein; for microsomal CLint: read-out: Rat Liver microsome Clearance; for half-life: read-out: Rat Liver microsome T1/2
Experimental: Metabolic stability assessment: Compounds were incubated with rat liver microsomes at 37° C. for a total of 45 minutes. The reaction was performed at pH 7.4 in 100 mM potassium phosphate buffer containing 0.5 mg/mL of rat liver microsomal protein. Phase I metabolism was assessed by adding NADPH to a final concentration of 1 mM and collecting samples at time points 0, 5, 15, 30 and 45 minutes. All collected samples were quenched 1:1 with ice-cold stop solution (1 μM labetalol and 1 μM glyburide in acetonitrile) and centrifuged to remove precipitated protein. Resulting supernatants were further diluted 1:4 with acetonitrile:water (1:1). Samples were analyzed by LC/MS/MS and calculations for half-life, and in-vitro clearance were accomplished using Microsoft Excel (2007).

[5] = test system: rats; experiment: Locomotion in rats; assay type: in vivo, rat; settings: 5.6 mg/kg i.p.
[6] = Plasma protein binding; assay type: in vitro ADME
[7] = in vivo; cited from earlier work
[8] = target: Mouse CB1 (Mus musculus (Mouse), UniProt P47746); experiment: Mouse CB1 [35S]GTPγS binding assay (ICR mouse cerebellum membranes); assay type: biochemical; settings: in presence of CP55,940, mean ± SEM
Chain of Mouse CB1 (P47746 whole entry): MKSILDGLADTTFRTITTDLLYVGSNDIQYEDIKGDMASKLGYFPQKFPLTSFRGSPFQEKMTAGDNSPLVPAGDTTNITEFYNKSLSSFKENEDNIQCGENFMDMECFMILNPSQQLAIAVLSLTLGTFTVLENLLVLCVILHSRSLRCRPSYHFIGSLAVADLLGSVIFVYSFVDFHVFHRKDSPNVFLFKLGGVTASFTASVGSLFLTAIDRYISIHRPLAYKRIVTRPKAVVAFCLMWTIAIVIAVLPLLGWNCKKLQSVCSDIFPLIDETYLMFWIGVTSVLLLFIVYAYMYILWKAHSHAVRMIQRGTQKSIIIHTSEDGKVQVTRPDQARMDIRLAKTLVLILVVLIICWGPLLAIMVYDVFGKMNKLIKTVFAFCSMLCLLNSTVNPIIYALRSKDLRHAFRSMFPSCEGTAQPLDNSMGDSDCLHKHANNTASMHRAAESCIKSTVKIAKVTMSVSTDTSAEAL
Experimental: [^35S]GTPγS Binding Assay: For receptor signaling, membranes (10 μg protein) from either ICR mouse cerebellum mice (6-8 weeks old; Enviga International, Indianapolis, Indiana, United States of America) or HEK cells stably expressing CB1 receptor were preincubated in assay buffer for 10 min with 3 units/ml adenosine deaminase then incubated for 60 min at 30° C. with 30 μM GDP and 0.1 nM [^35S]GTPγS (Perkin Elmer Life Sciences, Boston, Massachusetts, United States of America). Non-specific binding was determined by adding 30 μM unlabeled GTPγS.
as §1

[9] = target: T1, Human CB1; experiment: Human CB1 HEK293 membrane [35S]GTPγS binding assay; assay type: biochemical; settings: HEK293 membranes expressing human CB1, in presence of CP55,940, mean ± SEM
Experimental: Non-specific binding was determined by adding 30 μM unlabeled GTPγS.
as §1

[10] = test system: rats; settings: 10 mg/kg; cited from earlier work
[11] = test system: rats; settings: cited from earlier work

SMILES: O=c1c(NCCc2cccc(Cl)c2)c(Nc2ccc(Cl)cc2)c1=O [Compound 7, 3-[(4-Chlorophenyl)amino]-4-{[2-(3-chlorophenyl)ethyl]amino}cyclobut-3-ene-1,2-dione]
- Efflux ratio BA/AB ([1]; MDCK-MDR1): 2.1
- Papp A to B (x10^-6 cm/s) ([1]; MDCK-MDR1, 10 μM, apical to basolateral): 3.1 x10^-6 cm/s
- Papp B to A (x10^-6 cm/s) ([1]; MDCK-MDR1, 10 μM, basolateral to apical): 6.4 x10^-6 cm/s
- solubility kinetic at 2 h [2]: <1 µM
- IC50 [3]: 130 ± 12 nM
- microsomal CLint ([4]; NADPH, 37° C.): 34.7 µL/min/mg
- half-life ([4]; NADPH, 37° C.): 40 min
- Metabolic stability in rat liver microsomes compared with PSNCBAM-1 ([4]; versus PSNCBAM-1): better metabolic stability
- Effect on locomotion [5]: without affecting locomotion
- Effect on locomotion ([5]; listed as Compound 6): did not affect locomotion
- % Plasma Protein Bound [6]: >99.74%

SMILES: N#Cc1ccc(NC(=O)Nc2cccc(-c3cccc(N4CCCC4)n3)c2)cc1 [RTICBM-28]
- THC's potency in drug discrimination [7]: reduces THC's potency in drug discrimination

- IC50 ([8]; read-out: Mouse CB1 [35S]GTPγS binding assay pIC50 ± SEM (converted)): 110 nM
- solubility kinetic at 2 h ([2]; aqueous buffer, kinetic from dmso stock): < 1 µM
- IC50 [3]: 575 ± 100 nM
- microsomal CLint ([4]; NADPH, 37° C.): 59.6 µL/min/mg
- half-life ([4]; NADPH, 37° C.): 23.7 min
- IC50 ([9]; read-out: Human CB1 HEK293 membrane [35S]GTPγS binding assay pIC50 ± SEM (converted)): 501 nM
- % Plasma Protein Bound [6]: 99%
SMILES: O=c1c(Nc2ccc(Cl)cc2)c(Nc2cccc(-c3ccc(F)cc3)c2)c1=O [Compound 33, 3-[(4-Chlorophenyl)amino]-4-[(4′-fluorobiphenyl-3-yl)amino]cyclobut-3-ene-1,2-dione]

SMILES: CC(=O)c1ccc(CCNc2c(Nc3ccc(Cl)cc3)c(=O)c2=O)cc1 [Compound 40, 3-{[2-(A-acetylphenyl)ethyl]amino}-4-[(4-chlorophenyl)amino]cyclobut-3-ene-1,2-dione]
- Mouse CB1 [35S]GTPγS binding assay pIC50 ± SEM [8]: 6.70 ± 0.09
- IC50 [3]: 350 ± 10 nM
- Human CB1 HEK293 membrane [35S]GTPγS binding assay pIC50 ± SEM [9]: 6.77 ± 0.04

SMILES: O=C(NCCc1cccc(Cl)c1)Nc1ccc(Cl)cc1 [RTICBM-189]
- Drug-induced reinstatement of cocaine seeking in rats [10]: attenuates drug-induced restatement of cocaine seeking

SMILES: O=C(Nc1ccc(Cl)cc1)Nc1cccc(-c2cccc(N3CCCC3)n2)c1 [PSNCBAM-1, reference compound]
- Food intake and body weight in rats [11]: reduces food intake and body weight
- Rat Liver microsome T1/2 ([4]; 0.5 mg/mL protein, NADPH, 37° C.): 13 min

- Mouse CB1 [35S]GTPγS binding assay pIC50 ± SEM [8]: 6.61 ± 0.19
- IC50 [3]: 362 ± 30 nM
- Human CB1 HEK293 membrane [35S]GTPγS binding assay pIC50 ± SEM [9]: 6.84 ± 0.08
SMILES: O=c1c(NCCc2ccc(F)cc2F)c(Nc2ccc(Cl)cc2)c1=O [Compound 47, 3-[(4-Chlorophenyl)amino]-4-{[2-(2,4-difluorophenyl)ethyl]amino}cyclobut-3-ene-1,2-dione]
